Laboratory results: US7022712B2, “Solubilization of weak bases” (Arizona Board of Regents on Behalf of the University of …, priority 2002, dated 2006)
In brackets after ≈: the same amount, converted by molar mass. Where two headings read alike, the source gives them in different places.

Legend:
[1] = listed for preferred weak bases, no method given; cited from earlier work
[2] = physchem; assay type: physicochemical; conditions: for solubility at 10 days: thermodynamic from solid
Description: The buffer systems used for the pH-solubilization profile were 0.01 M sodium citrate/HCl with pH range 1.2–4.0, 0.01 M citrate-phosphate-borate/HCl with pH range 4.0–8.0, and 0.01M glycine/NaOH with pH range 8.0–12.0. In all the above mentioned buffers the ionic strength was maintained at 0.1M using sodium chloride. The effect of buffer species on the solubility of carbendazim at very low and high pH was not observed because the Ksp of each salt was not reached. Solubility at different pH was determined in the same manner as described below.
(§1) An excess amount of carbendazim was added to vials containing 2 ml of an aqueous solution of pH 2.00±0.15 and 7.00±0.15 at different concentrations (0, 1, 2.5, 5, and 10%) of cosolvents (EtOH, PG, PEG 400, and Glycerol), surfactants (Tween 20, Tween 80, sodium lauryl sulfate (SLS), and myristoyl camitine (MC)) and cyclodextrins (HPβCD and SBEβCD). In addition the cosolvents and cyclodextrins were studied at 20%. The sample vials were rotated at 20 rpm using an end-over-end mechanical rotator (Glas-Col Laboratory rotator, Terre Haute, Ind.) at ambient temperature for 10 days. Ten days was selected to ensure equilibrium because the strong crystal structure and high melting point (305° C.) (Budavari, S., 1996. The Merck Index, Twelfth ed. Merck & Co, New Jersey) of carbendazim contributes to a very slow dissolution rate. For solutions having pH greater than 9, the solubility was measured after 3 days rotation instead of 10 days because of the unstable nature of carbendazim in alkaline condition. The samples were filtered through a 0.45-μm filter and the pH at equilibrium was measured before performing HPLC analysis.
(§2) The HPLC assay used an Econosphere C8 column (150*4.6 mm, Alltech, Los Altos, Calif.) with a mobile phase composed of pure methanol. The flow rate was controlled at 1.0 ml/min (125 solvent Module, Beckman, Fullerton, Calif.) and the effluent was detected at 280 nm (168 detector, Beckman, Fullerton, Calif.). All experimental data are the average of duplicate values with an average error less than 3%.
The formation of a resonance-stabilized cation and anion is believed responsible for the high solubilities at low and high pH that are shown in FIG. 2. […] FIGS. 7–9 show the pH profile of three other drugs, obtained using analogous methods.

[3] = physchem; assay type: physicochemical; conditions: thermodynamic from solid, Solubility of carbendazim
Experimental: as §1, with “Ten days was selected to ensure equilibrium because the strong crystal structure and high melting point (305° C.) (Budavari, S., 1996. The Merck Index, Twelfth ed. Merck & Co, New Jersey) of carbendazim contributes to a very slow dissolution rate.” left out
as §2, with “All experimental data are the average of duplicate values with an average error less than 3%.” left out

[4] = in vivo; conditions: mouse
Description: The bioavailability of carbendazim was studied in the mouse. An intravenous dose, a formulation of carbendazim in corn oil, and a formulation of carbendazim in phosphoric acid corresponding to the phosphoric acid concentration in Emetrol were each given to a mouse. The blood level on the graph is indicative of the amount of drug absorbed divided by the blood volume of the mouse.

Cc1cc(NC(=O)NC(=O)c2ccccc2N(C)C)ccc1Oc1ncc(N)cn1
pKa [1]: ~5

COC(=O)Nc1nc2ccccc2[nH]1 [carbendazim, methyl 2-benzimidazolecarbamate]
intrinsic solubility ([2]; 10 days): 6.11 µg/mL | pKa ([2]; acidic pKa): 10.6 | pKa ([2]; basic pKa): 4.5 | solubility at 10 days ([2]; pH 1, aqueous buffer): 16000 µg/mL (≈ 83.7 mM) | solubility at 10 days ([2]; pH 2, aqueous buffer): 1600 µg/mL (≈ 8.37 mM) | solubility at 10 days ([3]; pH 2, aqueous buffer): 1640 µg/mL (≈ 8.58 mM) | solubility at 10 days ([3]; pH 7, aqueous buffer): 6 µg/mL (≈ 0.0314 mM) | Cmax ([4]; iv, 6.4 ug): 15000 ng/mL | bioavailability ([4]; iv, 6.4 ug): 100%

Corn oil
% Bioavailability ([4]; po, 132 mg): 4.8–6.4% | Cmax ([4]; po, 132 mg): 15000 to 20000 ng/mL
